The source of these data is paper PMC2909581 (Clinical cancer research : an official journal of the …, 2010).

The term half-life denotes how long it takes for the measured level to halve. A high value points to slow loss.

For series [1], the system named is Tumor Hsp90. Conditions: cited from earlier work.
Series [2] deals with melanoma. Conditions: single agent; cited from earlier work.
Series [3] is described as follows: clinical. The series is classed as in vivo, human.

In the case of `C=CCNC1=C2C[C@@H](C)C[C@H](OC)[C@H](O)[C@@H](C)/C=C(\C)[C@H](OC(N)=O)[C@@H](OC)/C=C\C=C(/C)C(=O)NC(=CC1=O)C2=O` [tanespimycin, 17-demethoxy-allylaminogeldanamycin], the “higher binding affinity of tumor Hsp90 (multi-chaperone complexes)” value in series [1] is recorded as 100 fold. In addition, in series [2], the “response in phase II trial” value is reported as “no objective responses or disease stabilization”. In series [3] (concurrent sorafenib), the “Cmax on days 1 and 15 compared” value is “similar”. Also, the half-life in series [3] (human, plasma, iv) was 3.6 h. In series [3] (intravenous infusion 300-450 mg/m^2), the “Cmax (end of infusion) and AUC versus tanespimycin dose” value is recorded as “increased with increasing tanespimycin dose”. Moreover, the “clearance (Mean ± SD)” value in series [3] (intravenous infusion, range 4.8 to 32.9 L/h/m^2) came out at 15.0 ± 7.9 L/h/m^2.
